Test results reported in patent US20140005177A1, “PYRIDINYL- AND PYRAZINYL-METHYLOXY-ARYL DERIVATIVES USEFUL AS INHIBITORS OF SPLEEN TYROSINE KINASE (SYK)” (GLAXO GROUP LIMITED, priority 2011, published 2014).

Legend:
Ramos B cells = assay: Ramos pErk assay (anti-IgM stimulated B cells, pErk MSD); type: cell-based; details: Homo sapiens, Ramos, anti-IgM 5 μg/ml, pErk readout, read-out: average pIC50 (converted)
Experimental: Ramos B cells (human B cells of Burkitt's Lymphoma) are stimulated using anti-IgM. […] The subsequent autophosphorylation of Syk leads to initiation of a signalling cascade resulting in B cell activation via the Erk MAP Kinase pathway. As a result Erk is phosphorylated and following cell lysis is detected by an immune capture assay.
Cells were plated at a density of 2.5×10^5/well in a volume of 25 μl assay medium (RPMI containing 10% heat inactivated foetal calf serum, 1% L-glutamine) in 96 v-well polypropylene plates. 25 μl appropriately diluted compound solution was added and the plate incubated for 30 min at 37° C. with 5% CO2. Cells were stimulated with 5 μl Fab′2 fragments of goat anti-human IgM (5 μg/ml final) for 7 min at 37° C. Cells are lysed by the addition of 55 μL 2×RIPA lysis buffer for 2 h at 4° C. Lysate may be frozen at this point at −80° C.
50 μl cell lysate was transferred to a 96 well MSD plate coated with anti-pErk1/2 (Thr/Tyr: 202/204; 185/187) capture antibody and incubated for 16 hours at 4° C. or 3 hours at room temperature. The plate was washed and an anti-pErk detection antibody added (25 μl/well) for 1 hour at room temperature. This was removed, 150 μL MSD read buffer added and the resultant electrochemiluminescence signal measured.
Compound was prepared as a 10 mM stock in DMSO and a dilution series prepared in DMSO using 9 successive 5-fold dilutions. This dilution series was diluted a further 1:100 with assay medium to give the final concentration range to be tested of 5×10^−5 to 2.56×10^−11M. Compound dilutions were prepared using the Biomek 2000 and Biomek Nx automated robotic pipetting systems.

[1] = further phase II clinical trial, allergic rhinitis; cited from earlier work
[2] = dosed intranasally, phase I/II, allergic rhinitis; cited from earlier work
[3] = cited from earlier work
B lymphoma (BKS-2) = details: murine BKS-2 B lymphoma model; cited from earlier work

Structure (SMILES) | IC50 (Ramos B cells) [µM] | other results
Cc1ccnc(COc2ccc(F)cc2-c2ccc3c(c2)CCNCC3)c1 [Example 26, 7-(5-fluoro-2-{[(4-methyl-2-pyridinyl)methyl]oxy}phenyl)-2,3,4,5-tetrahydro-1H-3-benzazepine] | 0.158 to 6.31 | 
Cc1ccnc(COc2ccc(C)cc2-c2ccc3c(c2)CCNCC3)c1 [Example 27, 7-(5-methyl-2-{[(4-methyl-2-pyridinyl)methyl]oxy}phenyl)-2,3,4,5-tetrahydro-1H-3-benzazepine] | 0.158 to 6.31 | 
CCOc1ccc(OCc2cc(C)ccn2)c(-c2ccc3c(c2)CCNCC3)c1 [Example 28, 7-(5-(ethyloxy)-2-{[(4-methyl-2-pyridinyl)methyl]oxy}phenyl)-2,3,4,5-tetrahydro-1H-3-benzazepine] | 0.158 to 6.31 | 
Cc1ccnc(COc2ccc(C#N)cc2-c2ccc3c(c2)CCNCC3)c1 [Example 30, 4-{[(4-methyl-2-pyridinyl)methyl]oxy}-3-(2,3,4,5-tetrahydro-1H-3-benzazepin-7-yl)benzonitrile] | 0.158 to 6.31 | 
Cc1ccnc(COc2ccc(C(F)(F)F)cc2-c2ccc3c(c2)CCNCC3)c1 [Example 31, 7-[2-{[(4-methyl-2-pyridinyl)methyl]oxy}-5-(trifluoromethyl)phenyl]-2,3,4,5-tetrahydro-1H-3-benzazepine] | 0.158 to 6.31 | 
Cc1ccnc(COc2ccc(C(C)(C)C)cc2-c2ccc3c(c2)CCNCC3)c1 [Example 32, 7-(5-(1,1-dimethylethyl)-2-{[(4-methyl-2-pyridinyl)methyl]oxy}phenyl)-2,3,4,5-tetrahydro-1H-3-benzazepine] | 0.158 to 6.31 | 
CCc1ccnc(COc2ccc(C)nc2-c2ccc3c(c2)CCNCC3)c1 [Example 33, 7-(3-{[(4-ethyl-2-pyridinyl)methyl]oxy}-6-methyl-2-pyridinyl)-2,3,4,5-tetrahydro-1H-3-benzazepine] | 0.158 to 6.31 | 
Cc1ccnc(COc2ccc(C(C)(C)C)nc2-c2ccc3c(c2)CCNCC3)c1 [Example 34, 7-(6-(1,1-dimethylethyl)-3-{[(4-methyl-2-pyridinyl)methyl]oxy}-2-pyridinyl)-2,3,4,5-tetrahydro-1H-3-benzazepine] | 0.158 to 6.31 | 
CCc1ccnc(COc2ccc(C(C)=O)cc2-c2ccc3c(c2)CCNCC3)c1 [Example 35, 1-[4-{[(4-ethyl-2-pyridinyl)methyl]oxy}-3-(2,3,4,5-tetrahydro-1H-3-benzazepin-7-yl)phenyl]ethanone] | 0.158 to 6.31 | 
CCOc1ccnc(COc2ccc(C(C)=O)cc2-c2ccc3c(c2)CCNCC3)c1 [Example 36, 1-[4-({[4-(ethyloxy)-2-pyridinyl]methyl}oxy)-3-(2,3,4,5-tetrahydro-1H-3-benzazepin-7-yl)phenyl]ethanone] | 0.158 to 6.31 | 
COc1ccc(OCc2ccccn2)c(-c2ccc3c(c2)CCNCC3)c1 [Example 37, 7-{5-(methyloxy)-2-[(2-pyridinylmethyl)oxy]phenyl}-2,3,4,5-tetrahydro-1H-3-benzazepine] | 0.158 to 6.31 | 
CC(=O)c1ccc(OCc2ccccn2)c(-c2ccc3c(c2)CNCC3)c1 [Example 38, 1-[4-[(2-pyridinylmethyl)oxy]-3-(1,2,3,4-tetrahydro-7-isoquinolinyl)phenyl]ethanone] | 0.158 to 6.31 | 
CNC(=O)c1ccc(OCc2cc(C)ccn2)c(-c2ccc3c(c2)CCNCC3)c1 [Example 39, N-methyl-4-{[(4-methyl-2-pyridinyl)methyl]oxy}-3-(2,3,4,5-tetrahydro-1H-3-benzazepin-7-yl)benzamide] | 0.158 to 6.31 | 
Cc1ccnc(COc2ccc(C(=O)N(C)C)cc2-c2ccc3c(c2)CNCC3)c1 [Example 41, N,N-dimethyl-4-{[(4-methyl-2-pyridinyl)methyl]oxy}-3-(1,2,3,4-tetrahydro-7-isoquinolinyl)benzamide] | 0.158 to 6.31 | 
Cc1ccnc(COc2ccc(Cl)cc2-c2ccc3c(c2)CCNCC3)c1 [Example 45, 7-(5-chloro-2-{[(4-methyl-2-pyridinyl)methyl]oxy}phenyl)-2,3,4,5-tetrahydro-1H-3-benzazepine] | 0.158 to 6.31 | 
Clc1ccc(OCc2ccccn2)c(-c2ccc3c(c2)CNCC3)c1 [Example 46, 7-{5-chloro-2-[(2-pyridinylmethyl)oxy]phenyl}-1,2,3,4-tetrahydroisoquinoline] | 0.158 to 6.31 | 
Cc1ccnc(COc2ccc(Cl)nc2-c2ccc3c(c2)CCNCC3)c1 [Example 48, 7-(6-chloro-3-{[(4-methyl-2-pyridinyl)methyl]oxy}-2-pyridinyl)-2,3,4,5-tetrahydro-1H-3-benzazepine] | 0.158 to 6.31 | 
Cc1ccnc(COc2ccc(Cl)nc2-c2ccc3c(c2)CNCC3)c1 [Example 49, 7-(6-chloro-3-{[(4-methyl-2-pyridinyl)methyl]oxy}-2-pyridinyl)-1,2,3,4-tetrahydroisoquinoline] | 0.158 to 6.31 | 
Oc1cccc(Nc2ncc(F)c(Nc3cccc(O)c3)n2)c1 [Example R112] |  | efficacy versus placebo [1]: lack of efficacy versus placebo; PGD2 [2]: statistically significant decrease; clinical safety [2]: safe across a range of indicators
COc1cc(Nc2ncc(F)c(Nc3ccc4c(n3)N(COP(=O)(O)O)C(=O)C(C)(C)O4)n2)cc(OC)c1OC [Example R788, fostamatinib disodium] |  | therapeutic effect ([3]; patients with DLBCL and CLL/SLL): therapeutic benefit; tolerability ([3]; patients with relapsed or refractory B-Cell NHL): well-tolerated
COc1cc(/C=C/C(=O)CC(=O)/C=C/c2ccc(O)c(OC)c2)ccc1O [curcumin] |  | tumour burden as measured by the total splenocyte number (B lymphoma (BKS-2)): significant reduction of tumour burden
